Measured values published in patent publication US9944618B2, “Inhibiting neurotransmitter reuptake” (Mayo Foundation for Medical Education and Research, priority 2013, dated 2018).

Key:
[1] = molecular target: human dopamine transporter (Homo sapiens (Human), UniProt Q01959); test: Human DAT (dopamine transporter) uptake assay; assay type: cell-based; conditions: read-out: hDAT Ki
In short: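 Uptake inhibition was measured in HEK293F cells transfected with human DAT, plated at ~60,000 cells/well and settled ≥3 h at 37 °C. Compounds came from 10 mM DMSO stocks. Read-out was uptake of a fluorescent neurotransmitter transporter dye in HBSS with 0.02 M HEPES, with dye level given as % of vendor reconstitution; n=3.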

CYP2D6 = CYP2D6 (Homo sapiens (Human), UniProt P10635); test: Cytochrome P450 inhibition assay, recombinant CYP2D6 (MAMC substrate); assay type: in vitro ADME; conditions: recombinant enzyme
Chain of CYP2D6 (P10635 whole entry): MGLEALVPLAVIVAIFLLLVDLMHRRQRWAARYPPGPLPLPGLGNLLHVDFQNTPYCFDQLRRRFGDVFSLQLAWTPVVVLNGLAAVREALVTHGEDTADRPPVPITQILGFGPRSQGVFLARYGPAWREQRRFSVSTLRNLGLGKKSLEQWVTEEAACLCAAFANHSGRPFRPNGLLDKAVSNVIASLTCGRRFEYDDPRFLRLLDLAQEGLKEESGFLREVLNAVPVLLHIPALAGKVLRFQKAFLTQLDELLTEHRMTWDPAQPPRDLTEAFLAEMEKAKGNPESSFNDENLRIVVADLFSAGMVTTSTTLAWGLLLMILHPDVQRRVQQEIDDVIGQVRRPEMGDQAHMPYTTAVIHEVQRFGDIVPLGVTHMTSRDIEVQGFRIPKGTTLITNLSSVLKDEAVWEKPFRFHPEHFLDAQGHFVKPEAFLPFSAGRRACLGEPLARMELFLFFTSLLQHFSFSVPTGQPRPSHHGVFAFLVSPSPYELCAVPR
Protocol: (§1) Recombinant enzymes, 3A4 and 2D6, generated using the ABL yeast expression system were used. […] The assay mixture also included K2HPO4 (pH 7.4; conc. 0.1 M) and NADPH (conc. 1 mM). The incubation time was 30 minutes, and the reference inhibitor was A-naphthoflavone. For CYP2D6, the enzyme amount was 2 pmol per well, and the substrate (7-methoxy-4-(aminomethyl)-coumarin; MAMC) was used at 20 μM. The assay mixture also included K2HPO4 (pH 7.4; conc. 0.1 M) and NADPH (conc. 0.06 mM). The incubation time was 35 minutes, and the reference inhibitor was quinidine.
(§2) Briefly, 0.6 μL of serially diluted compound was added to 75 μL water. 10 μL of diluted compound in water was then added to each assay plate. 20 μL of a K2HPO4, enzyme, and substrate mixture was added. After 10 minutes of room temperature pre-incubation, 10 μL of NADPH was added, and the plates were placed at 37° C. for 30 or 35 minutes depending on the enzyme being tested. After the incubation was complete, 20 μL of 0.1% Tris/ACN was added to the plate. The plate was read on a FluorStar fluorescence plate reader.

CYP3A4 = CYP3A4 (Homo sapiens (Human), UniProt P08684); test: Cytochrome P450 inhibition assay, recombinant CYP3A4 (BFC substrate); assay type: in vitro ADME; conditions: recombinant enzyme
Chain of CYP3A4 (P08684 whole entry): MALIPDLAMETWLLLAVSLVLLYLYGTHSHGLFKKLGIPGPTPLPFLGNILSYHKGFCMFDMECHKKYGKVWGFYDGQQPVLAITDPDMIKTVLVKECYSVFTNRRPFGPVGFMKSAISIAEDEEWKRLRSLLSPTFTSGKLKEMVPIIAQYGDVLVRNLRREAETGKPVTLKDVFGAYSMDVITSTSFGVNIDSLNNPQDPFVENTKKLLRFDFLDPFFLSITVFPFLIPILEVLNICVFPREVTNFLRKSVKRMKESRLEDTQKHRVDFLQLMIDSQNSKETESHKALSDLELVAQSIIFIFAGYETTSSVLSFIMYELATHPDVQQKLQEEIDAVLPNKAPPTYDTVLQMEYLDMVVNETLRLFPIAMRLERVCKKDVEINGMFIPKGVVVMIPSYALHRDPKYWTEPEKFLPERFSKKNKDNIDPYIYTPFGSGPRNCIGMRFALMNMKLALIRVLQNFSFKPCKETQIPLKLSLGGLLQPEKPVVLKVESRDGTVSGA
Protocol: as §1, §2

[2] = molecular target: human norepinephrine transporter (Homo sapiens (Human), UniProt P23975); test: Human NET (norepinephrine transporter) uptake assay; assay type: cell-based; conditions: read-out: hNET Ki
Chain of human norepinephrine transporter (P23975 whole entry): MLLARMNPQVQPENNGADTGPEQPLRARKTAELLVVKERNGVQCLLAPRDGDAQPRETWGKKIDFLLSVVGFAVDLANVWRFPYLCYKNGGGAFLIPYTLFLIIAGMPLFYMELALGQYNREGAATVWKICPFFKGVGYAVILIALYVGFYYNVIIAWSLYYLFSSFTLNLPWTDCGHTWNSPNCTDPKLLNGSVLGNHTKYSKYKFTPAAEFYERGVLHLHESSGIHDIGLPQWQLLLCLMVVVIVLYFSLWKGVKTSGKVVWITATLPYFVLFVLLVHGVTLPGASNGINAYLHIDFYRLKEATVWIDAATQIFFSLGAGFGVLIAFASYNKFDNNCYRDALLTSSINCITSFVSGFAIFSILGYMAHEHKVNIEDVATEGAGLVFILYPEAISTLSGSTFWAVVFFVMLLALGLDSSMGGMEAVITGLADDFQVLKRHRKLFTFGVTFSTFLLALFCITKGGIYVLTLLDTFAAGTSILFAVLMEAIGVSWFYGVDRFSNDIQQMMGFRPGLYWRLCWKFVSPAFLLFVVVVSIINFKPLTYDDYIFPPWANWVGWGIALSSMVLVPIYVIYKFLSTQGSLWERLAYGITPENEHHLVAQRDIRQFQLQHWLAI
In short: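 HEK293F cells transfected with human NET were thawed, plated at about 60,000 cells/well and held at 37 °C for at least 3 h. Compounds came from 10 mM DMSO stocks, with nomifensine as control, in 1×HBSS/0.02 M HEPES. Uptake was followed with a neurotransmitter transporter dye, dosed as % of vendor reconstitution, in triplicate.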

[3] = molecular target: human serotonin transporter (Homo sapiens (Human), UniProt P31645); test: Human SERT (serotonin transporter) uptake assay; assay type: cell-based; conditions: read-out: hSERT Ki
Chain of human serotonin transporter (P31645 whole entry): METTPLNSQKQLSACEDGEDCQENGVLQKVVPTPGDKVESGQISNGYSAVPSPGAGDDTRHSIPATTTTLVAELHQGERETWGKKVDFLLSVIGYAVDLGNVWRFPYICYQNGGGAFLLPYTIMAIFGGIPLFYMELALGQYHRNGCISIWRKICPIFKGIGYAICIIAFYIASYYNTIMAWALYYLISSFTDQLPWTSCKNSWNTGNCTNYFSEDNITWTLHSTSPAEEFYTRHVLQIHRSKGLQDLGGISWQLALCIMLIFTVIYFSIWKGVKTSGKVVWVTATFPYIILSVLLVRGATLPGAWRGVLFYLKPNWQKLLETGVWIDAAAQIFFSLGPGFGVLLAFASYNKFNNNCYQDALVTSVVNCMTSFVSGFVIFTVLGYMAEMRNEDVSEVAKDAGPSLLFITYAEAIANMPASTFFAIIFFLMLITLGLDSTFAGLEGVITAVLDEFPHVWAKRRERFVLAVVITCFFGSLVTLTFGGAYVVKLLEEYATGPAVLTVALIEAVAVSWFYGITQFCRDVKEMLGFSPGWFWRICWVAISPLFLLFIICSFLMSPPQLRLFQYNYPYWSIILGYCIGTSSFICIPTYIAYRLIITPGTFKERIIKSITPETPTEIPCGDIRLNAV
In short: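 HEK293F cells transfected with human SERT, about 60,000 per well, settled for ≥3 h at 37° C before compound addition. Uptake was followed with a fluorescent transporter dye in HBSS with 0.02 M HEPES. Background came from 10 μM fluoxetine, nomifensine was the control, n=3.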

[4] = pKa of basic centres (Table 1); assay type: physicochemical; conditions: first base, e.g., an aliphatic primary, secondary, or tertiary amine; for pKa: read-out: pKa (Base 1)
hERG = hERG (Homo sapiens (Human), UniProt Q12809); test: Human ERG (hERG) assay, hERG currents in hERG-expressing CHO cells; assay type: cell-based; conditions: hERG-expressing CHO cells
Chain of hERG (Q12809 whole entry): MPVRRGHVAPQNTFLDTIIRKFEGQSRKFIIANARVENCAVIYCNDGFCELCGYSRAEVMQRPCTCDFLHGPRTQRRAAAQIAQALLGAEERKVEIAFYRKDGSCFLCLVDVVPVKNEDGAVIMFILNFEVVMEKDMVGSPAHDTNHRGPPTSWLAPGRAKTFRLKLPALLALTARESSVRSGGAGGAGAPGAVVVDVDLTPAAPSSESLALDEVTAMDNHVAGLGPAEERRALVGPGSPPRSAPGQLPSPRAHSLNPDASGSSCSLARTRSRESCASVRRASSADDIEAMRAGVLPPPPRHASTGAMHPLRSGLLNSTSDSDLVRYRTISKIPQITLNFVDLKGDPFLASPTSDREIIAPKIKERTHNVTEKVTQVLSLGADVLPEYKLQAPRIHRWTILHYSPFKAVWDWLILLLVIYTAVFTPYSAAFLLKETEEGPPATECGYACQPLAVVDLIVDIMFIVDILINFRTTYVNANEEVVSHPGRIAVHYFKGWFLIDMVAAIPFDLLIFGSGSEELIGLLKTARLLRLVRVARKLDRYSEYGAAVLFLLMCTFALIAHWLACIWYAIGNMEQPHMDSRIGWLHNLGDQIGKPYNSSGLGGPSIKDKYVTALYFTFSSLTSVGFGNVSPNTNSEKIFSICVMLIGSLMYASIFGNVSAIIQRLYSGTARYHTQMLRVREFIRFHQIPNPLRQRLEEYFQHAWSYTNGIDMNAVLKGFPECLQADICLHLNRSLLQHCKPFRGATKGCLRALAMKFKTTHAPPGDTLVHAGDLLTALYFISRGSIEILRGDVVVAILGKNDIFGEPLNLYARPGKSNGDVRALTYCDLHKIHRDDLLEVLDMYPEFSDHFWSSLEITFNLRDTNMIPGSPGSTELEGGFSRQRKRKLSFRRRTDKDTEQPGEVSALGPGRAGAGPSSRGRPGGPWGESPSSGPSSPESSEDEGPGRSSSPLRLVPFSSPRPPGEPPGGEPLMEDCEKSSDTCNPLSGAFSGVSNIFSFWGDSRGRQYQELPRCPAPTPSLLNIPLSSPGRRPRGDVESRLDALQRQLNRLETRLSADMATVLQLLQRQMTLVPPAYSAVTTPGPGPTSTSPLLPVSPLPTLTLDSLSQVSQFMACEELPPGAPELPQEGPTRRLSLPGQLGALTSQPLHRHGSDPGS

Chain of human dopamine transporter (Q01959 whole entry): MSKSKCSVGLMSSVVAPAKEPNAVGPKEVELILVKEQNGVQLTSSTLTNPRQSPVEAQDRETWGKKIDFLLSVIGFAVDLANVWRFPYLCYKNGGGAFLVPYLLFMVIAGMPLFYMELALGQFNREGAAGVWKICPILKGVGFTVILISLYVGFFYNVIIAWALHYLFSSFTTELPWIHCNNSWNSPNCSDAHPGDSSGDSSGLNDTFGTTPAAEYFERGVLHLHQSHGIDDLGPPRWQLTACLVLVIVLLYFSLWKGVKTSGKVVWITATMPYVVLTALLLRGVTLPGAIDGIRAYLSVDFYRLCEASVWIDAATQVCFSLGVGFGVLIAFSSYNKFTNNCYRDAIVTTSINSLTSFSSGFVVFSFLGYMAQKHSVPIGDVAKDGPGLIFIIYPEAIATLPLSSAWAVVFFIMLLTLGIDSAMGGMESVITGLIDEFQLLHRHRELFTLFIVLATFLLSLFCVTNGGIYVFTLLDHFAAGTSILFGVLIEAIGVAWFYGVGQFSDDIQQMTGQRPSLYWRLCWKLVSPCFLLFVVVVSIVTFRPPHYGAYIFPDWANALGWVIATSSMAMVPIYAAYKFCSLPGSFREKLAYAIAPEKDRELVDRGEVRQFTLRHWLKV

SMILES | Ki [1] [µM] | IC50 (CYP2D6) [µM] | IC50 (CYP3A4) [µM] | Ki [2] [µM] | Ki [3] [µM] | pKa [4] | IC50 (hERG) [µM] | pKa (Base 1) [4]
CNCC(Cc1ccc(C)s1)c1ccc2ccccc2c1 (stereo not shown) [Compound 139] | 0.0887 | 0.62 | 13 | 0.005 | 0.0064 | 10 | 3.1 | –
CNC[C@H](Cc1ccccc1O)c1ccc2ccccc2c1 [Compound 140] | 0.0916 | 0.86 | 20 | 0.0259 | 0.0283 | 10 | 6.1 | –
CNC[C@H](c1ccc2ccccc2c1)[C@H](O)c1ccc2c(c1)OCCO2 [Compound 143] | 0.106 | 0.16 | 7.6 | 0.0066 | 0.0079 | 9.7 | 15 | –
CNC[C@H](c1ccc2ccccc2c1)[C@H](Cl)c1ccccc1 [Compound 146] | 0.144 | 0.092 | 1.3 | 0.0093 | 0.0101 | 9.5 | 15 | –
CNC[C@@H](c1ccc(Cl)c(Cl)c1)[C@@H](O)c1ccsc1 [Compound 153] | 0.0338 | 1.4 | 20 | 0.0039 | 0.0075 | – | 1.6 | 9.5
CNC[C@@H](c1ccc(Cl)c(Cl)c1)[C@@H](O)c1cccc(SC)c1 [Compound 154] | 0.0403 | 0.29 | 6.9 | 0.0371 | 0.0384 | – | 2.2 | 9.4
CNC[C@H](c1ccc(Cl)c(Cl)c1)[C@H](O)c1ccccc1SC [Compound 156] | 0.0485 | 0.17 | 9.5 | 0.0172 | 0.0224 | 9.4 | 4.1 | –
CCc1ccccc1[C@@H](O)[C@H](CNC)c1ccc(Cl)c(Cl)c1 [Compound 158] | 0.0554 | 0.098 | 3.8 | 0.0063 | 0.0386 | 9.4 | 4.4 | –
CNC[C@H](c1ccc(Cl)c(Cl)c1)[C@H](O)c1ccccc1OC [Compound 160] | 0.0835 | 0.49 | 3.5 | 0.0091 | 0.0092 | 9.4 | 8 | –
CNC[C@H](c1ccc(Cl)c(Cl)c1)[C@H](O)c1ccccc1I [Compound 164] | 0.113 | 0.25 | 5.3 | 0.0416 | 0.0781 | 9.4 | 4.1 | –
CNC[C@H](c1ccc(Cl)c(Cl)c1)[C@@H](O)c1cccc(I)c1 [Compound 165] | 0.118 | 0.081 | 2.9 | 0.0386 | 0.341 | 9.4 | 3.8 | –
CNC[C@H](c1ccc(Cl)c(Cl)c1)[C@H](O)c1cccc(OC)n1 [Compound 167] | 0.132 | 0.4 | 20 | 0.0108 | 0.0188 | 9.2 | 12 | –
CNC[C@@H](c1ccc(Cl)c(Cl)c1)[C@@H](OC)c1cccc(NS(=O)(=O)C(F)(F)F)c1 [Compound 172] | 0.102 | 0.97 | 0.2 | 0.625 | 1.26 | 9.4 | 4.7 | –
